Here are results for one compound from patent US20140243415A1, “COMPOUNDS INHIBITING GALECTIN-1 EXPRESSION, CANCER CELL PROLIFERATION, INVASION, AND TUMORIGENESIS” (ONCOETHIX SA, priority 2011, published 2014).

Where only a bound is given, the exact number is not on record here.

For one data set, the system named is SQ-shGal1 cells. Put plainly: Antiproliferative effects in galectin-1 silenced cells. Format: cell-based, human. The following applies: SQ-shGal1 cells in vitro. How it is done:
Galectin-1 shRNA, Semaphorin-3A shRNA and scrambled shRNA plasmids were purchased from Santa Cruz Biotechnology (Santa Cruz, Calif., USA) and transfected into cells using the manufacturer's shRNA transfection protocol. Briefly, a mix of 1 μg shRNA plasmid DNA solution and lpl shRNA plasmid transfection reagent were incubated 45 minutes at room temperature and then added on 50% confluent cells with shRNA plasmid transfection medium. After 6 hours incubation at 37° C., normal growth medium containing double serum and antibiotics concentration was added. After 24 h, the stably transfected cells were selected with puromycin.
SQ-shGal1 cells were developed from SQ20B using a small hairpin GAL1-RNA silencing transfection. SQ-shGal1 cells display no difference in cell doubling-time and cloning capacity but expressed lower galectin-1 expression and invasive capacity in matrigel as compared to SQ20B (FIG. 8). […] As shown in FIG. 6C-left, silencing galectin-1 expression in mice was associated with a decreased development of secondary tumors as compared to parental SQ20B tumors. SQ-shGal1 cancer cells in tumors expressed lower level of Ki67 and VEGFR-2 expressions (FIG. 6D).

A further data set concerns OVCAR3. In words: MTT cell cytotoxicity assay. The data set is classed as cell-based, human. Particulars: 72 h drug exposure and 48 h wash-out. The method, then:
(§1) Cell survival was determined using the MTT assay (3-[4,5-dimethylthiazol-2-yl]-2,5-diphenyltetrazolium bromide; Sigma, Saint-Quentin Fallavier, France). The conversion of yellow water-soluble tetrazolium MTT into purple insoluble formazan is catalyzed by mitochondrial dehydrogenases and used to estimate the number of viable cells. In brief, cells were seeded in 96-well tissue culture plates at a density of 2×10^3 cells/well. After 72 h drug exposure and 48 h wash-out, cells were incubated with 0.4 mg/ml MTT for 4 hours at 37° C. After incubation, the supernatant was discarded, insoluble formazan precipitates were dissolved in 0.1 ml of DMSO and the absorbance was measured at 560 nm by use of a microplate reader (Thermo, France). Wells with untreated cells or with drug-containing medium without cells were used as positive and negative controls respectively. IC50's were determined as the halves of maximal inhibitory drug concentration for each cell line.
(§2) The antiproliferative effects of OTX-008 and anginex were assessed using MTT assay in a panel of human cancer cell lines of human origins expressing various levels of Lgals-1 mRNA and galectin-1 protein expressions (Supplementary Table 1). […] Remaining cell lines were less sensitive to OTX-008 with GI50 values >9 μM. […] No correlation between mRNA expressions of galectin-2, galectin-3, and galectin-8 as well as semaphorin-3A, semaphorin-3B, neuropilin-1, VEGFR1-3, VEGFA-D, and PDGFRa&P3 and sensitivity to OTX-008 were detected in the panel.
A general note: Tetrazolium dyes change colour on reduction, which living cells bring about.

The test system of the next data set is A2780-1A9. Put plainly: MTT cell cytotoxicity assay. Format: cell-based, human. The method, then: as §1, §2
The next data set has as its system SQ20B. Put plainly: MTT cell cytotoxicity assay. Format: cell-based, human. How it is done: as §1, §2
Data set [1] has as its system panel of human cancer cell lines. In words: MTT cell cytotoxicity assay, cell line panel. The following applies: Homo sapiens; remaining cell lines (other than SQ20B, OVCAR3, A2780-1A9). The data set is classed as cell-based. The method, then: as §1, with “Wells with untreated cells or with drug-containing medium without cells were used as positive and negative controls respectively.” left out
The antiproliferative effects of OTX-008 and anginex were assessed using MTT assay in a panel of human cancer cell lines of human origins expressing various levels of Lgals-1 mRNA and galectin-1 protein expressions (Supplementary Table 1). […] No correlation between mRNA expressions of galectin-2, galectin-3, and galectin-8 as well as semaphorin-3A, semaphorin-3B, neuropilin-1, VEGFR1-3, VEGFA-D, and PDGFRa&P3 and sensitivity to OTX-008 were detected in the panel.

For another data set, the system named is γH2AX. Put plainly: γH2AX expression. Format: cell-based, human.
Data set [2] deals with A2780-1A9 ovarian xenografts. In words: A2780-1A9 xenograft model. Format: in vivo. How it is done: FIG. 6. […] A—The antitumor effects of OTX-008 on A2780-1A9 xenograft were compared to that of active doses of cisplatin and paclitaxel—solid line represents days of treatment. B—Immunohistochemistry of galectin-1, Ki67 (MIB-1) and CD31 on A2780-1A9 xenograft. C—Tumor growth and secondary tumor formation of SQ20B xenografts untreated and treated with 10 mg/kg/day OTX-008 and SQ-shGAL1 xenografts. Tumor volume was determined as 3.14(width2)/length—solid line represents days of treatment. D—Immunohistochemistry of galectin-1, MIB1, VEGFR2 and CD31 on SQ20B xenografts
The immunohistochemical procedure was performed on OCT-embedded subcutaneous tumor stained with H&E, MIB1 ( 1/400, Dako, Glostrup, Denmark), CD31 ( 1/200, Dako), VEGFR2 ( 1/125, Cell Signaling, Saint Quentin Yvelines, France) or galectin-1 (1:20, Abcam, Cambridge, Mass., USA) using an automated immunohistochemical stainer according to the manufacturer's guidelines (streptavidin-peroxidase protocol; Benchmark, Ventana, Tuscon, Ariz., USA). The images were captured and analyzed with a Zeiss observer Z1 microscope. Images quantification was performed using Histolab Software (Microvision, France) subtracting the background. Magnification ×20 and ×40.
A volume containing 8.10^6 A2780-1A9 cancer cells was injected s.c. into the right lateral flank of female nu/nu athymic mice. When tumors become palpable, mice were randomized and treated i.p. with PBS (3 days per week), 5 mg/kg OTX-008 (3 days per week), 6 mg/kg cisplatin (days 1, 8 and 15) or 10 mg/kg taxotere (days 1, 8 and 15). Tumor size was measured three times per week with caliper and tumor volume was calculated as (length×width^2)/2. At the end of the study, animals were sacrificed and tumors collected and frozen in OCT for molecular biology and immunohistochemical analysis. Mouse experiments were approved by the Animal Housing and Experiment Board of the French government.

[3] abbreviates: 72 h drug exposure and 48 h wash-out.

In the case of `CN(C)CCNC(=O)COc1c2cccc1Cc1cccc(c1OCC(=O)NCCN(C)C)Cc1cccc(c1OCC(=O)NCCN(C)C)Cc1cccc(c1OCC(=O)NCCN(C)C)C2` [OTX-008], the “antiproliferative effects in galectin-1 silenced cells” value in the data set on SQ-shGal1 cells was “does not further increase its antiproliferative effects”. The “antiproliferative effects (MTT)” value in the data set with OVCAR3 is “dose-dependent antiproliferative effects”. Moreover, in the data set with A2780-1A9, the “sensitivity to OTX-008” value is given as “only marginally sensitive”. Moreover, in the data set with A2780-1A9 (setting [3]), the “antiproliferative effects (MTT)” value is recorded as “dose-dependent antiproliferative effects”. The “sensitivity to OTX-008 among the cell lines tested” value with SQ20B is reported as “most sensitive”. In the data set on SQ20B (setting [3]), the “antiproliferative effects (MTT)” value is recorded as “dose-dependent antiproliferative effects”. The compound further registered a GI50 in data set [1] above 9 µM. The γH2AX expression result in the data set on γH2AX is listed as “no direct effects”. In addition, the tumor growth entry in data set [2] (5 mg/kg OTX-008 i.p., 3 days per week) is given as “Tumor growth inhibition”. For the same compound, the “antitumor effects relative to cisplatin and docetaxel” value in data set [2] (5 mg/kg OTX-008 vs 6 mg/kg cisplatin, 10 mg/kg taxotere) is “comparable to that of cisplatin and docetaxel”. In addition, in data set [2] (A2780-1A9 tumors), the VEGFR-2 expression result is given as “decreased expression of VEGFR-2”, the “number of micro-vessels in tumors” value was “decreased number of micro-vessel” and the “proliferation as measured by Ki67 expression” value is listed as “significantly reduced”. For the same compound, the “toxicity at active doses” value in data set [2] (nude mice) is on record as “no toxicity”. For the same compound, the “vessels lumen surface area” value in data set [2] (vs control) is on record as “significant decrease of the surface of vessels”. In data set [2] (vs non treated tumors), the “galectin-1 expression in tumors (immunohistochemistry)” value was “significant lower galectin-1 expression”.

Broadly, the GI50 is the concentration giving 50% growth inhibition. Read a high GI50 as less potent growth inhibition.
